Measurements from PubChem BioAssay AID248 (DTP/NCI, 2004).
“And” between values parts separate entries of the source, which are not always exact repeats. Equal entries are not always repeated. Toxic doses and inconclusive results are not listed. Cut-off read from the data, not from the text of the source: active = T/C of 150% or more; inactive = T/C below 125%.

System: L1210 leukemia ip in BDF1 mice, survival T/C
Experiment: NCI In Vivo Anticancer Drug Screen. Data for tumor model L1210 Leukemia (intraperitoneal) in B6D2F1 (BDF1) mice
Details: endpoint: mean survival time, higher = longer survival
In short: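 Read-out is survival time, reported as the treated-group measurement over the vehicle-control measurement.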

[1] = dose: 100.0 mg/kg/injection, schedule: Q01DX001 (ip), vehicle: saline
[2] = dose: 100.0 mg/kg/injection, schedule: Q01DX001 (ip), vehicle: carboxymethylcellulose (CMC)
[3] = dose: 200.0 mg/kg/injection, schedule: Q01DX001 (ip), vehicle: carboxymethylcellulose (CMC)
[4] = dose: 400.0 mg/kg/injection, schedule: Q01DX001 (ip), vehicle: carboxymethylcellulose (CMC)
[5] = dose: 100.0 mg/kg/injection, schedule: Q04DX002 (ip), vehicle: saline
[6] = dose: 200.0 mg/kg/injection, schedule: Q04DX002 (ip), vehicle: saline
[7] = dose: 400.0 mg/kg/injection, schedule: Q04DX002 (ip), vehicle: saline

Measured: T/C

OC(CNc1ccccc1)CN1CCN(CC(O)CNc2ccccc2)CC1 (stereo not given)
inactive: dose: 50.0 mg/kg/injection, schedule: Q01DX001 (ip), vehicle: saline 105 % of control | [1] 98 % of control | dose: 200.0 mg/kg/injection, schedule: Q01DX001 (ip), vehicle: saline 94 % of control

Oc1ccccc1-c1nc2ccccc2o1
inactive: dose: 50.0 mg/kg/injection, schedule: Q04DX002 (ip), vehicle: saline with Tween-80 98 % of control | dose: 100.0 mg/kg/injection, schedule: Q04DX002 (ip), vehicle: saline with Tween-80 95 % of control | dose: 200.0 mg/kg/injection, schedule: Q04DX002 (ip), vehicle: saline with Tween-80 92 % of control

CC(N)c1ccccc1 (stereo not given) (tested in a mixture with another compound)
inactive: dose: 50.0 mg/kg/injection, schedule: Q01DX009 (ip), vehicle: saline 87 % of control | dose: 100.0 mg/kg/injection, schedule: Q01DX009 (ip), vehicle: saline 90 % of control

NC(CSC(c1ccccc1)(c1ccccc1)c1ccc(CBr)cc1)C(=O)O (stereo not given)
inactive: dose: 50.0 mg/kg/injection, schedule: Q01DX009 (ip), vehicle: other 105 % of control | dose: 100.0 mg/kg/injection, schedule: Q01DX009 (ip), vehicle: other 115 % of control | dose: 200.0 mg/kg/injection, schedule: Q01DX009 (ip), vehicle: other 121 % of control

c1ccc2c[n+]3cc4ccccc4cc3cc2c1
inactive: dose: 6.25 mg/kg/injection, schedule: Q01DX009 (ip), vehicle: saline 101 % of control | dose: 12.5 mg/kg/injection, schedule: Q01DX009 (ip), vehicle: saline 104 % of control | dose: 25.0 mg/kg/injection, schedule: Q01DX009 (ip), vehicle: saline 104 % of control | dose: 35.0 mg/kg/injection, schedule: Q01DX009 (ip), vehicle: saline 95 % of control

CCC[CH2][Sn]1([CH2]CCC)[O]C(=O)CCC(=O)[O]1
inactive: dose: 1.56 mg/kg/injection, schedule: Q01DX009 (ip), vehicle: Klucel (hydroxypropylcellulose) (HPC) 113 % of control | dose: 3.12 mg/kg/injection, schedule: Q01DX009 (ip), vehicle: Klucel (hydroxypropylcellulose) (HPC) 87 % of control

O=C(O)CCC(=O)/C=C1/Nc2ccccc2C1=O
inactive: dose: 100.0 mg/kg/injection, schedule: Q04DX003 (ip), vehicle: saline with Tween-80 88 % of control | dose: 200.0 mg/kg/injection, schedule: Q04DX003 (ip), vehicle: saline with Tween-80 90 % of control | dose: 400.0 mg/kg/injection, schedule: Q04DX003 (ip), vehicle: saline with Tween-80 88 % of control

CC(C)(O)C(CO)c1ccccc1 (stereo not given)
inactive: [1] 96 % of control

NC(N)=N/N=C/c1ccccc1S(=O)(=O)O
inactive: dose: 15.0 mg/kg/injection, schedule: Q01DX Z (ip), vehicle: saline 92 % of control | dose: 30.0 mg/kg/injection, schedule: Q01DX Z (ip), vehicle: saline 95 % of control | dose: 60.0 mg/kg/injection, schedule: Q01DX Z (ip), vehicle: saline 94 % of control | dose: 60.0 mg/kg/injection, schedule: Q01DX Z (oral), vehicle: other 98 % of control | dose: 120.0 mg/kg/injection, schedule: Q01DX Z (ip), vehicle: saline 86 % of control | dose: 120.0 mg/kg/injection, schedule: Q01DX Z (oral), vehicle: other 101 % of control | dose: 240.0 mg/kg/injection, schedule: Q01DX Z (oral), vehicle: other 97 % of control | dose: 480.0 mg/kg/injection, schedule: Q01DX Z (oral), vehicle: other 98 % of control

Cc1cccc(N2C(=O)C3C(C2=O)C2(Cl)C(Cl)=C(Cl)C3(Cl)C2(Cl)Cl)c1C (stereo not given)
inactive: dose: 3.0 mg/kg/injection, schedule: Q01DX009 (ip), vehicle: Klucel (hydroxypropylcellulose) (HPC) 96 % of control | dose: 6.0 mg/kg/injection, schedule: Q01DX009 (ip), vehicle: Klucel (hydroxypropylcellulose) (HPC) 102 % of control | dose: 12.5 mg/kg/injection, schedule: Q01DX009 (ip), vehicle: Klucel (hydroxypropylcellulose) (HPC) 111 % of control | dose: 25.0 mg/kg/injection, schedule: Q01DX009 (ip), vehicle: Klucel (hydroxypropylcellulose) (HPC) 107 % of control | dose: 50.0 mg/kg/injection, schedule: Q01DX009 (ip), vehicle: Klucel (hydroxypropylcellulose) (HPC) 103 % of control

CCCCCCCCCCCCCCCCS(=O)(=O)N/N=C/c1ccc(Cl)c([N+](=O)[O-])c1
inactive: [2] 98 % of control | [3] 107 % of control | [4] 103 % of control

CC(=O)OCCN(C)C
inactive: dose: 75.0 mg/kg/injection, schedule: Q01DX009 (ip), vehicle: saline 104 % of control | [5] 100 % of control | dose: 150.0 mg/kg/injection, schedule: Q01DX009 (ip), vehicle: saline 101 % of control | [6] 110 % of control | dose: 300.0 mg/kg/injection, schedule: Q01DX009 (ip), vehicle: saline 101 % of control | [7] 113 % of control

C/C=C/C=C/COC(=O)CCCCCCC
inactive: dose: 25.0 mg/kg/injection, schedule: Q04DX002 (ip), vehicle: saline 107 % of control | dose: 50.0 mg/kg/injection, schedule: Q04DX002 (ip), vehicle: saline 103 % of control | [5] 103 % of control | [6] 110 % of control and 112 % of control | [7] 100 % of control

CC1(CO)COC2(CCCCC2)N1 (stereo not given)
inactive: dose: 75.0 mg/kg/injection, schedule: Q01DX001 (ip), vehicle: saline 102 % of control | dose: 150.0 mg/kg/injection, schedule: Q01DX001 (ip), vehicle: saline 92 % of control | dose: 300.0 mg/kg/injection, schedule: Q01DX001 (ip), vehicle: saline 96 % of control

O=C(O)CN(CCN(CC(=O)O)CC(=O)O)CCN(CC(=O)O)CC(=O)O
inactive: [2] 93 % of control | [4] 96 % of control

Nc1nc(SCCc2ccccc2)c2[nH]cnc2n1
inactive: dose: 125.0 mg/kg/injection, schedule: Q01DX Z (ip), vehicle: carboxymethylcellulose (CMC) 97 % of control | dose: 200.0 mg/kg/injection, schedule: Q01DX Z (ip), vehicle: carboxymethylcellulose (CMC) 123 % of control | dose: 250.0 mg/kg/injection, schedule: Q01DX Z (ip), vehicle: carboxymethylcellulose (CMC) 100 % of control | dose: 500.0 mg/kg/injection, schedule: Q01DX Z (ip), vehicle: carboxymethylcellulose (CMC) 106 % of control | dose: 1000.0 mg/kg/injection, schedule: Q01DX Z (ip), vehicle: carboxymethylcellulose (CMC) 93 % of control

CC(=O)O[C@H]1CC[C@H]2[C@@H]3CC[C@H]4C[C@@H]5[C@H](C[C@]4(C)[C@H]3CC[C@]12C)C5(F)F
inactive: dose: 50.0 mg/kg/injection, schedule: Q01DX001 (sc), vehicle: steriod suspending solution 102 % of control | dose: 50.0 mg/kg/injection, schedule: Q01DX009 (sc), vehicle: steriod suspending solution 103 % of control | dose: 100.0 mg/kg/injection, schedule: Q01DX001 (sc), vehicle: steriod suspending solution 101 % of control | dose: 100.0 mg/kg/injection, schedule: Q01DX009 (sc), vehicle: steriod suspending solution 105 % of control | dose: 200.0 mg/kg/injection, schedule: Q01DX001 (sc), vehicle: steriod suspending solution 98 % of control | dose: 200.0 mg/kg/injection, schedule: Q01DX009 (sc), vehicle: steriod suspending solution 102 % of control | dose: 400.0 mg/kg/injection, schedule: Q01DX001 (sc), vehicle: steriod suspending solution 101 % of control | dose: 400.0 mg/kg/injection, schedule: Q01DX009 (sc), vehicle: steriod suspending solution 102 % of control

CNC(=O)c1ccc(Cl)c(S(=O)(=O)NC)c1
inactive: dose: 100.0 mg/kg/injection, schedule: Q04DX002 (ip), vehicle: Klucel (hydroxypropylcellulose) (HPC) 100 % of control | dose: 200.0 mg/kg/injection, schedule: Q04DX002 (ip), vehicle: Klucel (hydroxypropylcellulose) (HPC) 104 % of control | dose: 400.0 mg/kg/injection, schedule: Q04DX002 (ip), vehicle: Klucel (hydroxypropylcellulose) (HPC) 107 % of control

Nc1ccc2c(c1)Cc1c-2cc(I)c(O)c1I
inactive: [2] 98 % of control | [3] 101 % of control | [4] 101 % of control

NNC(=O)C1CCCCN1 (stereo not given)
inactive: dose: 100.0 mg/kg/injection, schedule: Q01DX001 (ip), vehicle: water 98 % of control | dose: 200.0 mg/kg/injection, schedule: Q01DX001 (ip), vehicle: water 100 % of control | dose: 400.0 mg/kg/injection, schedule: Q01DX001 (ip), vehicle: water 104 % of control
